Experimental data from ChEMBL document CHEMBL1201862, “PubChem BioAssay data set” (2004).
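These data come from cells grown in 96-well plates and exposed to compound for 48 hours at five concentrations. Abbreviation: GI50, concentration required for 50% inhibition of growth.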 Calls of active or inactive are those of the source. Cut-off read from the data, not from the text of the source: active = GI50 up to about 1.1 µM and inactive = higher.

Columns and labels:
Experiment in all cases: NCI-60 cell line screen, 48 h
[1] = system: 786-0
[2] = system: A498
[3] = system: COLO 205
[4] = system: DU-145
[5] = system: HCT-116
[6] = system: HOP-92
[7] = system: IGROV-1
[8] = system: KM12
[9] = system: MOLT-4
[10] = system: NCI-H522
[11] = system: OVCAR-4
[12] = system: OVCAR-8
[13] = system: PC-3
[14] = system: SF-268
[15] = system: SF-539
[16] = system: SK-MEL-2
[17] = system: SK-MEL-5
[18] = system: SW-620
[19] = system: UO-31
[20] = system: RXF 393

Measured: GI50

O=Cc1c2n(c3ccccc13)N[C@@](Cc1ccc(O)cc1)(C(=O)O)C2
inactive: [1] 89.1 µM | [2] > 100 µM | [3] > 100 µM | [4] > 100 µM | [5] 38.3 µM | [6] > 100 µM | [7] > 100 µM | [8] > 100 µM | [9] 60.3 µM | [10] 25.5 µM | [11] 68.7 µM | [12] > 100 µM | [13] 81.7 µM | [14] 36 µM | [15] > 100 µM | [16] > 100 µM | [17] > 100 µM | [18] 56.8 µM | [19] > 100 µM

CCOc1ccc2c(c1)/C(=C(\C(Cl)=C(Cl)Cl)[N+](=O)[O-])N2
inactive: [1] > 100 µM | [2] > 100 µM | [3] > 100 µM | [4] > 100 µM | [5] > 100 µM | [8] > 100 µM | [9] > 100 µM | [11] 33.2 µM | [12] > 100 µM | [13] > 100 µM | [14] 66.2 µM | [15] > 100 µM | [16] > 100 µM | [18] > 100 µM | [19] > 100 µM

CC1(C)O[C@H]2OC(CO)C(N=[N+]=[N-])[C@H]2O1 (some centres not stated)
inactive: [1] > 100 µM | [2] > 100 µM | [3] > 100 µM | [4] > 100 µM | [5] > 100 µM | [6] > 100 µM | [7] > 100 µM | [8] > 100 µM | [9] > 100 µM | [10] > 100 µM | [11] > 100 µM | [12] > 100 µM | [13] > 100 µM | [14] > 100 µM | [15] > 100 µM | [16] > 100 µM | [17] > 100 µM | [18] > 100 µM | [19] > 100 µM

C/C(=N/NC(N)=S)C(CN1CCOCC1)C(C1=C(O)c2ccccc2OC1)c1ccccc1 (configuration not stated)
inactive: [1] > 100 µM | [2] > 100 µM | [3] 68.9 µM | [4] > 100 µM | [5] 85.5 µM | [6] 71.3 µM | [7] > 100 µM | [8] > 100 µM | [9] 39 µM | [10] > 100 µM | [11] > 100 µM | [12] > 100 µM | [20] > 100 µM | [14] 41.8 µM | [15] > 100 µM | [16] > 100 µM | [17] > 100 µM | [18] > 100 µM | [19] > 100 µM

CC(=O)N1C(C(=O)NN2CCOCC2)CSC1c1ccccc1 (configuration not stated)
inactive: [1] > 100 µM | [2] > 100 µM | [3] > 100 µM | [4] > 100 µM | [5] > 100 µM | [6] > 100 µM | [7] > 100 µM | [8] > 100 µM | [9] > 100 µM | [10] > 100 µM | [11] > 100 µM | [12] > 100 µM | [13] > 100 µM | [14] > 100 µM | [15] > 100 µM | [16] > 100 µM | [17] > 100 µM | [18] > 100 µM | [19] > 100 µM

O=S(=O)(O)c1ccc(NN(c2c(O)ccc3ccccc23)S(=O)(=O)O)cc1
inactive: [1] > 100 µM | [2] > 100 µM | [3] > 100 µM | [4] > 100 µM | [5] > 100 µM | [7] > 100 µM | [8] > 100 µM | [9] > 100 µM | [10] > 100 µM | [11] > 100 µM | [12] > 100 µM | [13] > 100 µM | [14] > 100 µM | [15] > 100 µM | [16] > 100 µM | [17] > 100 µM | [18] > 100 µM | [19] > 100 µM

CSc1nc(NC(C)C)c2c(n1)Sc1nc3ccccc3n1C2O (configuration not stated)
inactive: [1] 4.11 µM | [3] 1.65 µM | [4] 3.18 µM | [5] 4.13 µM | [6] 89.5 µM | [7] 8.04 µM | [8] 3.01 µM | [9] 2.84 µM | [10] 2.28 µM | [11] 4.98 µM | [12] 4.9 µM | [13] 1.83 µM | [20] 3.86 µM | [14] 4.43 µM | [16] 7.73 µM | [18] 2.27 µM | [19] 5.71 µM

CSC1=C(SC)SC(=C2SC3=C(SC(=C4SCCS4)S3)S2)S1
inactive: [1] > 100 µM | [3] > 100 µM | [4] > 100 µM | [5] > 100 µM | [6] > 100 µM | [7] > 100 µM | [8] > 100 µM | [9] > 100 µM | [10] > 100 µM | [11] > 100 µM | [12] > 100 µM | [13] > 100 µM | [14] > 100 µM | [15] > 100 µM | [16] > 100 µM | [17] > 100 µM | [18] > 100 µM | [19] > 100 µM

O=c1[nH]nc(Cc2ccc(Cl)cc2)n1/N=C/c1c[nH]c2ccccc12
inactive: [1] > 100 µM | [2] > 100 µM | [4] > 100 µM | [5] > 100 µM | [6] > 100 µM | [7] > 100 µM | [8] > 100 µM | [9] > 100 µM | [10] > 100 µM | [11] > 100 µM | [12] > 100 µM | [13] > 100 µM | [14] > 100 µM | [15] > 100 µM | [16] > 100 µM | [17] > 100 µM | [18] > 100 µM | [19] > 100 µM

COc1ccc(NCC(=O)Nn2c(C)nc3ccc(S(=O)(=O)Nc4ccc(OC)cc4)cc3c2=O)cc1
inactive: [1] > 100 µM | [3] > 100 µM | [4] > 100 µM | [5] > 100 µM | [6] > 100 µM | [7] 69.7 µM | [8] > 100 µM | [9] > 100 µM | [10] > 100 µM | [11] > 100 µM | [12] > 100 µM | [13] > 100 µM | [14] > 100 µM | [15] > 100 µM | [16] > 100 µM | [18] > 100 µM | [19] > 100 µM

Cc1ccc(S(=O)(=O)Nn2c(-c3ccccc3)c(C#N)c(-c3ccc([N+](=O)[O-])cc3)c(C#N)c2=O)cc1
inactive: [1] > 100 µM | [2] > 100 µM | [3] > 100 µM | [5] > 100 µM | [6] 30.1 µM | [7] 70.8 µM | [8] > 100 µM | [9] 45.6 µM | [10] 13.3 µM | [11] > 100 µM | [12] > 100 µM | [13] > 100 µM | [20] > 100 µM | [14] > 100 µM | [15] > 100 µM | [16] > 100 µM | [17] 97.1 µM | [18] > 100 µM
